These are literature values, as cited in patent EP4732833A1, “ROPIVACAINE MICROSPHERE AND PREPARATION METHOD THEREFOR” (Bostal Drug Delivery Co., Ltd., priority 2023, dated 2025).

For this data set the following is noted: background statement.

As for `CCCN1CCCC[C@H]1C(=O)Nc1c(C)cccc1C` [Ropivacaine, (S)-N-(2,6-dimethylphenyl)-1-propylpiperidine-2-carboxamide], the plasma half-life is 1.8 h.
